Measured values from paper PMC12459314, “Subcutaneous administration of a novel TRPM8 antagonist reverses cold hypersensitivity while attenuating the drop in core body temperature” (British journal of pharmacology, 2024).
“And” between values parts separate entries of the source, which are not always exact repeats. Equal values may be shown once.

Tests used:
[1] = target: T1, human TRPA1 (Homo sapiens, UniProt O75762); test: FlexStation Ca2+ flux assay in HEK293T cells transfected with human TRPA1; format: cell-based
T1 construct: expressed in transfected cells; host or cells: HEK293T
Method: (§1) The human embryonic kidney cell line (HEK293T, CRL-1573, RRID: CVCL_0045) was purchased from the American Type Culture Collection (Manassas, USA) and was maintained in Dulbecco’s Minimal Essential Medium (DMEM, Cellgro10013CV, Corning, Tewksbury, USA) that was supplemented with 10% fetal bovine serum (Gemini Bio-products), 2-mM L-glutamine (Invitrogen) and 100 U/mL penicillin and streptomycin (Invitrogen) and cultured in an incubator at 37°C, 5% CO2 and 95% humidity. Human TRPV1 and TRPA1 plasmid DNA (gift from D. Julius) were transiently bulk transfected individually into HEK293T cells using the FuGene HD transfection reagent (TFR, Promega, Madison, WI, USA) at a 3:1 ratio (TFR:DNA). Transfected cells were seeded at 10,000 cells per well in a volume of 25 μl into black walled collagen coated 384-well microtiter plates and cultured in an incubator at 37°C, 5% CO2 and 95% humidity for 48 h prior to the initiation of calcium mobilization experiments performed on a FlexStation 3 (Molecular Devices, Sunnyvale, CA, USA) platform equipped with a 16-channel robotic pipettor head and FLIPR tetra pipette tips. At 46 h post transfection, cell monolayers were preloaded with 25 μl of the FLIPR Calcium 6 dye (Molecular Devices) for 2 h in an incubator at 37°C, 5% CO2 and 95% humidity according to the manufacturer’s instructions. The plate was transferred to a FlexStation 3 microplate reader. Relative fluorescence units (RFUs) (Ex. 485 nm, Em 525 nm) were then acquired at 37°C in the kinetic mode. The run time for the agonist (1st) and antagonist (2nd) reads were 60 s each, for a total run time of 120 s, with an interval of 3.1 s between reads in the same well to allow all 16 wells in a column to be read sequentially, and the photomultiplier tube (PMT) level was set at medium, with 6 flashes per read. Baseline Fluo-6 RFUs were acquired for 18 s prior to the addition of compound in both the agonist and antagonist reads. For the first addition agonist read, the volume in the well was 50 μl, the pipette height was set at 40 μl, and 12.5 μl of the test compound was delivered at a speed of 2 μl·s^−1 after the baseline RFU’s acquisition period at 19 s, and the RFUs were acquired for an additional 41 s. For the second addition antagonist read, the volume in the well was 62.5 μl, the pipette height was set at 40 μl, and 12.5 μl of an EC80 agonist concentration was delivered at a speed of 2 μl/s after the baseline RFU’s acquisition period at 19 s, and the RFUs were acquired for an additional 41 s. The FlexStation 3 instrument settings, automated pipetting and data collection were all controlled by the SoftMax Pro software, version 7.1.2.
To analyse the agonist and antagonist Ca^2+ mobilization Fluo-6 RFU’s kinetic data, the RFU’s readings acquired throughout the 60-s acquisition period for each individual well were divided by the average RFU values acquired during the first 18-s baseline acquisition period from the same well to calculate a fold over baseline (FOB) ratio.

[2] = target: T2, dopamine transporter (DAT) (Homo sapiens, UniProt Q01959); test: SAFETYscan E/IC50 ELECT, dopamine transporter antagonist assay; format: cell-based; conditions: single experiment
T2 construct: purchased Eurofins DiscoverX (SAFETYscan E/IC50 ELECT service)
Method: Assessment of the safety profile of VBJ103 across 78 assays using recombinant human targets was performed with the SAFETYscan E/IC50 ELECT service by Eurofins DiscoverX (San Diego, CA, USA). […] The assays were performed utilizing PathHunter enzyme fragment complementation (EFC) technology, FLIPR®-based cellular screening assays, KINOMEscan kinase binding assays and a variety of enzymatic assays. Further potential functional activity at opioid receptors was performed in the gpcrSCAN service by Eurofins DiscoverX. Hit Hunter® cAMP assays were carried out using Enzyme Fragment Complementation (EFC) with β-galactosidase (β-Gal) as the functional reporter.

[3] = tested on: 78 recombinant human targets; test: SAFETYscan E/IC50 ELECT panel of 78 assays; conditions: 10 concentrations, 0.005 to 100 μM; single experiment
Method: Assessment of the safety profile of VBJ103 across 78 assays using recombinant human targets was performed with the SAFETYscan E/IC50 ELECT service by Eurofins DiscoverX (San Diego, CA, USA). Data represent a single experiment and therefore should be considered preliminary. The assays were performed utilizing PathHunter enzyme fragment complementation (EFC) technology, FLIPR®-based cellular screening assays, KINOMEscan kinase binding assays and a variety of enzymatic assays. Further potential functional activity at opioid receptors was performed in the gpcrSCAN service by Eurofins DiscoverX. Hit Hunter® cAMP assays were carried out using Enzyme Fragment Complementation (EFC) with β-galactosidase (β-Gal) as the functional reporter.

[4] = target: T3, human TRPV1 (Homo sapiens, UniProt Q8NER1); test: FlexStation Ca2+ flux assay in HEK293T cells transfected with human TRPV1; format: cell-based
T3 construct: expressed in transfected cells; host or cells: HEK293T
Method: as §1, with “Transfected cells were seeded at 10,000 cells per well in a volume of 25 μl into black walled collagen coated 384-well microtiter plates and cultured in an incubator at 37°C, 5% CO2 and 95% humidity for 48 h prior to the initiation of calcium mobilization experiments performed on a FlexStation 3 (Molecular Devices, Sunnyvale, CA, USA) platform equipped with a 16-channel robotic pipettor head and FLIPR tetra pipette tips. At 46 h post transfection, cell monolayers were preloaded with 25 μl of the FLIPR Calcium 6 dye (Molecular Devices) for 2 h in an incubator at 37°C, 5% CO2 and 95% humidity according to the manufacturer’s instructions.” left out, “The FlexStation 3 instrument settings, automated pipetting and data collection were all controlled by the SoftMax Pro software, version 7.1.2.” left out

T2 sequence (Q01959 whole entry): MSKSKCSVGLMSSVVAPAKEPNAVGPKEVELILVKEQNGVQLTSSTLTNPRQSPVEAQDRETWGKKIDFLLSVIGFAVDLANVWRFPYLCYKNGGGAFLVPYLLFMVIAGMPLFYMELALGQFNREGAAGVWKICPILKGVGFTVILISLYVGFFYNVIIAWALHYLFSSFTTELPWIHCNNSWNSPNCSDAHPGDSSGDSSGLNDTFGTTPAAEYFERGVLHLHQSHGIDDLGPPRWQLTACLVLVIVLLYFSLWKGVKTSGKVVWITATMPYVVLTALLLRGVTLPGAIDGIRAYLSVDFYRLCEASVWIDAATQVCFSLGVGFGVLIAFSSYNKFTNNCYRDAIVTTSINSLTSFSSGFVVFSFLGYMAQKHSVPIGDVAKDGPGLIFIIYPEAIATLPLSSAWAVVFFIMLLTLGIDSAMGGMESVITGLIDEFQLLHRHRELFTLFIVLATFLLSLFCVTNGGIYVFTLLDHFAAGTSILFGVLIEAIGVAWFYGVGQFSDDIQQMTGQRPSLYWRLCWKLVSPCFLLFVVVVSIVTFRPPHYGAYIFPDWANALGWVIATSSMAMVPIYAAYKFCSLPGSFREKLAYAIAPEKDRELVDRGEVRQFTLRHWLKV
T1 sequence (O75762 whole entry): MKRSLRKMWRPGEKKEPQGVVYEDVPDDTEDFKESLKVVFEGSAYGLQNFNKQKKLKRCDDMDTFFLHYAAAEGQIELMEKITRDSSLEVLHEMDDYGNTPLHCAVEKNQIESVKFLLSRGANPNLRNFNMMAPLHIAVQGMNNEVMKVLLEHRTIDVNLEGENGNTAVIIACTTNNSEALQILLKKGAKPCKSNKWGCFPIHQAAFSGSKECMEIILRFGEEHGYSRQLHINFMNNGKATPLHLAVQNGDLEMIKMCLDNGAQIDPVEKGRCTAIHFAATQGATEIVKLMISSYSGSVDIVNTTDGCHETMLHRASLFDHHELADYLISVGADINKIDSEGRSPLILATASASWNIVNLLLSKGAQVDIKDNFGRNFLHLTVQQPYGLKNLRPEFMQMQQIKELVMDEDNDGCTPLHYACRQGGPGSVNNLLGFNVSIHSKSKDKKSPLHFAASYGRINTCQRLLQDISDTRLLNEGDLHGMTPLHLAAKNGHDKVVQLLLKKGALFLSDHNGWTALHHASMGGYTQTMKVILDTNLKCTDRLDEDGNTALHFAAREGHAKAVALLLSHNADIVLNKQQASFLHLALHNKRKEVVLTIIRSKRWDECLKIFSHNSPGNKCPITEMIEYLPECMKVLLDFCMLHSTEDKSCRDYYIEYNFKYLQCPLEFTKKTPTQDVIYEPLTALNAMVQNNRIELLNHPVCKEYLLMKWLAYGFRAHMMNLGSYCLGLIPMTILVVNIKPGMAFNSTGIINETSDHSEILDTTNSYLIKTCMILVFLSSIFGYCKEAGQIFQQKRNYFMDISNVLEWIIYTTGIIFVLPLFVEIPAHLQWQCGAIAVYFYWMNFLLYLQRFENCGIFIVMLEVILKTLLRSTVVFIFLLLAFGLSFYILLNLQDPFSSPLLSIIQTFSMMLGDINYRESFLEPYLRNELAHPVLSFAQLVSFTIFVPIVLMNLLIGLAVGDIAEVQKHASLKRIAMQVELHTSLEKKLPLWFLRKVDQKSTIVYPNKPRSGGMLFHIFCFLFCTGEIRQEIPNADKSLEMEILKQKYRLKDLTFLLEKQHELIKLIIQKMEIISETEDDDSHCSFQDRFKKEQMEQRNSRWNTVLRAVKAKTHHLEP
T3 sequence (Q8NER1 whole entry): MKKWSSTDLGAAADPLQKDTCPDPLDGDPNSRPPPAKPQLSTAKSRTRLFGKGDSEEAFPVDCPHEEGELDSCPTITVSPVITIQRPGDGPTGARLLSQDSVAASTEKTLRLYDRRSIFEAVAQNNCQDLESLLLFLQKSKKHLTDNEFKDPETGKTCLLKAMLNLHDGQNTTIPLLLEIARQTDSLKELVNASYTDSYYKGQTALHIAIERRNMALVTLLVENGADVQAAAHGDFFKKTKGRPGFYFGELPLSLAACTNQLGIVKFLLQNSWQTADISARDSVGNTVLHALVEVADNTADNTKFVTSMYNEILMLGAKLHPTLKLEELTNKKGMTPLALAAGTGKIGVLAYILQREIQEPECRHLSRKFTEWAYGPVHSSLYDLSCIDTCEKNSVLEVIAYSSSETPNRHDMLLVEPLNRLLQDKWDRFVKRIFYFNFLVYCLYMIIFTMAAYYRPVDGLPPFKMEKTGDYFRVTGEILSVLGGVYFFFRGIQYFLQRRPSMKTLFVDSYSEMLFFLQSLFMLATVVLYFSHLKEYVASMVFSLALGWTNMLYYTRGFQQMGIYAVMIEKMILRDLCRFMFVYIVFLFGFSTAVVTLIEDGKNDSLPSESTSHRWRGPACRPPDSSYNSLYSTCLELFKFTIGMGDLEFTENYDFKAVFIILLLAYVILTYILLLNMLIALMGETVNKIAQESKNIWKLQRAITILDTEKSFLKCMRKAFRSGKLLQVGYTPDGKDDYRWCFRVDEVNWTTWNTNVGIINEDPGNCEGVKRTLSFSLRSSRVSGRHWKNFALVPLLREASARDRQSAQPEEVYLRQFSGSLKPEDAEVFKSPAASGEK

EC50 ([1]; Figure 1g experiment, without HC-030031): 960 nM and 955 nM | antagonist activity at TRPA1 ([1]; against an EC80 concentration (10 μM) of AITC): no detectable antagonist activity | EC50 ([1]; agonist read): 1040 nM and > 1000 nM | shift in TRPA1 EC50 ([1]; with versus without HC-030031 (10 μM)): 3.2 fold | agonist activity at TRPV1 ([4]; compound alone): no apparent agonist activity | inhibition of the Ca2+ signal at TRPV1 ([4]; evoked with an EC80 concentration (0.1 μM) of capsaicin): Nor was there a detectable inhibition
SMILES: O=C(NC1CCC2(CCCC2)CC1)c1ccc(-c2ccccc2)cc1 [VBJ103, N-(Spiro[4.5]decan-8-yl)-[1,1′-biphenyl]-4-carboxamide]
IC50 ([2]; 10 concentrations, 0.005 to 100 μM): 125 nM and ~125 nM | DAT maximal inhibition ([2]; in relation to the control GBR 12909): ~ 60% | effects across the safety panel [3]: only dose-dependent effect detected
